From the supplement of paper PMC11208160

Assay: recombinant barcode read abundance after kanamycin selection (control-corrected) (log10(CPM+1)); higher = more efficient recombination; sequences stand for … in AGTGCAGAGAAAATCGGCCAGTTTTCTCTGCCTGCAGTCCGCATGCCGT…AGATTTATGCAGCGGACTGCCTTTCTCCCAAAGTGATAAACCGGACAGTATCATGGACCGGTTTTCCCGGTAATCCGTATTTGCAAGGTTGGTTTCACT; site = the 11-nt target
Description: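 Pooled E. coli target-specificity screen for the IS621 bridge recombinase. Each library plasmid pairs an 11-nt target (CT core) with a bridge RNA whose target-binding loop (9-nt LTG + 4-nt RTG) is reprogrammed; the rest of the 177-nt WT IS621 bridge RNA scaffold is fixed. The plasmid is co-electroporated with a WT donor plasmid; recombinase is induced with 0.1 mM IPTG and recombinants are selected on kanamycin. Recombinant barcodes are sequenced, converted to CPM, averaged over two biological replicates and corrected by the unselected control CPM. Molecule = full bridge RNA written as DNA: LTG = specificity nt 1-9, RTG = reverse complement of specificity nt 8-11, in the WT scaffold.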
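Note: IS621 recombinase and bridge RNA in Escherichia coli cells.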

Row | Sequence | recombinant barcode read abundance (log10)
1 | ACATGTGCTTGGGTTCTAACCTGTTGCAG (site ACATGGGCTCG) | 0.0637
2 | ACATGTGCTTGGGTTCTAACCTGTTGCAG (site ACATGTGCTCT) | 1.72
3 | ACATTAGCTTGGGTTCTAACCTGTTGCAA (site ACATTAGCTTT) | 0.609
4 | ACATTAGCTTGGGTTCTAACCTGTTGCAA (site ACTTTAGCTCT) | 0.0541
5 | ACCAAATCTTGGGTTCTAACCTGTTGCTA (site ACCAAATCTCG) | 0.356
6 | ACCAAATCTTGGGTTCTAACCTGTTGCTA (site ACCAAATCTTA) | 0.23
7 | ACCAAGTCTTGGGTTCTAACCTGTTGCGT (site ACCAAGTCTAC) | 1.98
8 | ACCAAGTCTTGGGTTCTAACCTGTTGCGT (site ACCAAGTCTGC) | 0.326
9 | ACCAATACTTGGGTTCTAACCTGTTGCCT (site ACCAATACTAG) | 0.0309
10 | ACCAATACTTGGGTTCTAACCTGTTGCCT (site ACCAATCCTAG) | 0.122
11 | ACCAATACTTGGGTTCTAACCTGTTGCCT (site ACCAATGCTAG) | 0.939
12 | ACCAATACTTGGGTTCTAACCTGTTGCCT (site ACCAATTCTAG) | 0.0138
13 | ACCAATGCTTGGGTTCTAACCTGTTGCCT (site ACCAATACTAG) | 0.182
14 | ACCAATGCTTGGGTTCTAACCTGTTGCCT (site ACCAATCCTAG) | 0.136
15 | ACCAATGCTTGGGTTCTAACCTGTTGCCT (site ACCAATGCTAG) | 0.0431
16 | ACCAATGCTTGGGTTCTAACCTGTTGCCT (site ACCAATTCTAG) | 0.163
17 | ACCAATTCTTGGGTTCTAACCTGTTGCCT (site ACCAATACTAG) | 0.059
18 | ACCAATTCTTGGGTTCTAACCTGTTGCCT (site ACCAATCCTAG) | 0.111
19 | ACCAATTCTTGGGTTCTAACCTGTTGCCT (site ACCAATGCTAG) | 0.0727
20 | ACCAATTCTTGGGTTCTAACCTGTTGCCT (site ACCAATTCTAG) | 0.483
21 | ACCCAACCTTGGGTTCTAACCTGTTGCCT (site ACCCAAACTAG) | 0.242

Row | Sequence | recombinant barcode read abundance (log10)
22 | ACCCAACCTTGGGTTCTAACCTGTTGCCT (site ACCCAACCTAG) | 1.58
23 | ACCCAACCTTGGGTTCTAACCTGTTGCCT (site ACCCAAGCTAG) | 0.104
24 | ACCCAACCTTGGGTTCTAACCTGTTGCCT (site ACCCAATCTAG) | 0.0366
25 | ACCCAATCTTGGGTTCTAACCTGTTGCCT (site ACCCAAACTAG) | 0.266
26 | ACCCAATCTTGGGTTCTAACCTGTTGCCT (site ACCCAACCTAG) | 0.0978
27 | ACCCAATCTTGGGTTCTAACCTGTTGCCT (site ACCCAAGCTAG) | 0.207
28 | ACCCAATCTTGGGTTCTAACCTGTTGCCT (site ACCCAATCTAG) | 1.47
29 | ACCCACACTTGGGTTCTAACCTGTTGCCG (site ACCCACACTCG) | 1.8
30 | ACCCACACTTGGGTTCTAACCTGTTGCCG (site TCCCACACTTG) | 0.111
31 | ACCGAGACTTGGGTTCTAACCTGTTGCGG (site ACCGAGACTCC) | 2.7
32 | ACCGAGACTTGGGTTCTAACCTGTTGCGG (site AGTGAGACTCC) | 0.0628
33 | ACCGAGTCTTGGGTTCTAACCTGTTGCCT (site AACGAGTCTAG) | 0.202
34 | ACCGAGTCTTGGGTTCTAACCTGTTGCCT (site ACCGAGTCTAG) | 1.85
35 | ACCGAGTCTTGGGTTCTAACCTGTTGCCT (site AGCGAGTCTAG) | 0.164
36 | ACCGAGTCTTGGGTTCTAACCTGTTGCCT (site ATCGAGTCTAG) | 0.387
37 | ACCGCTACTTGGGTTCTAACCTGTTGCCT (site ACCGCTACTAG) | 0.176
38 | ACCGCTACTTGGGTTCTAACCTGTTGCCT (site AGCGCTACTAG) | 0.0813
39 | ACCGGGACTTGGGTTCTAACCTGTTGCCT (site ACCGAGACTAG) | 0.285
40 | ACCGGGACTTGGGTTCTAACCTGTTGCCT (site ACCGCGACTAG) | 0.159
41 | ACCGGGACTTGGGTTCTAACCTGTTGCCT (site ACCGGGACTAG) | 1.14
42 | ACCGGGACTTGGGTTCTAACCTGTTGCCT (site ACCGTGACTAG) | 0

Row | Sequence | recombinant barcode read abundance (log10)
43 | ACCGGTACTTGGGTTCTAACCTGTTGCCT (site ACCAGTACTAG) | 0.408
44 | ACCGGTACTTGGGTTCTAACCTGTTGCCT (site ACCCGTACTAG) | 0.014
45 | ACCGGTACTTGGGTTCTAACCTGTTGCCT (site ACCGGTACTAG) | 0.508
46 | ACCGGTACTTGGGTTCTAACCTGTTGCCT (site ACCTGTACTAG) | 0.0135
47 | ACCTAACCTTGGGTTCTAACCTGTTGCAG (site ACCTAACCTCT) | 1.22
48 | ACCTAACCTTGGGTTCTAACCTGTTGCAG (site TCCTAACCTCA) | 0.0355
49 | ACCTGTCCTTGGGTTCTAACCTGTTGCCT (site ACCTGACCTAG) | 0.269
50 | ACCTGTCCTTGGGTTCTAACCTGTTGCCT (site ACCTGCCCTAG) | 0.0321
51 | ACCTGTCCTTGGGTTCTAACCTGTTGCCT (site ACCTGGCCTAG) | 0.173
52 | ACCTGTCCTTGGGTTCTAACCTGTTGCCT (site ACCTGTCCTAG) | 0.986
53 | ACCTTAACTTGGGTTCTAACCTGTTGCCT (site ACCTTAACTAG) | 0.166
54 | ACCTTAACTTGGGTTCTAACCTGTTGCCT (site ATCTCAACTAG) | 0
55 | ACCTTGCCTTGGGTTCTAACCTGTTGCTA (site ACCTTGCCTTA) | 0.478
56 | ACCTTGCCTTGGGTTCTAACCTGTTGCTA (site TGGAGAGCTCT) | 0.0461
57 | ACGAACGCTTGGGTTCTAACCTGTTGCCT (site ACGAACGCTAG) | 1.64
58 | ACGAACGCTTGGGTTCTAACCTGTTGCCT (site ACGACCGCTAG) | 0.344
59 | ACGAACGCTTGGGTTCTAACCTGTTGCCT (site ACGAGCGCTAG) | 0.085
60 | ACGAACGCTTGGGTTCTAACCTGTTGCCT (site ACGATCGCTAG) | 0.14
61 | ACGAAGCCTTGGGTTCTAACCTGTTGCCT (site ACGAAGCCTAG) | 1.35
62 | ACGAAGCCTTGGGTTCTAACCTGTTGCCT (site GCGACGCCTAG) | 0.19
63 | ACGACTCCTTGGGTTCTAACCTGTTGCCT (site ACGACTACTAG) | 0.467

Row | Sequence | recombinant barcode read abundance (log10)
64 | ACGACTCCTTGGGTTCTAACCTGTTGCCT (site ACGACTCCTAG) | 0.618
65 | ACGACTCCTTGGGTTCTAACCTGTTGCCT (site ACGACTGCTAG) | 0.117
66 | ACGACTCCTTGGGTTCTAACCTGTTGCCT (site ACGACTTCTAG) | 0.0781
67 | ACGAGTCCTTGGGTTCTAACCTGTTGCCT (site ACGAGTCCTAC) | 0.112
68 | ACGAGTCCTTGGGTTCTAACCTGTTGCCT (site ACGAGTCCTAG) | 1.36
69 | ACGCACTCTTGGGTTCTAACCTGTTGCCT (site ACGCAATCTAG) | 0.02
70 | ACGCACTCTTGGGTTCTAACCTGTTGCCT (site ACGCACTCTAG) | 0.131
71 | ACGCACTCTTGGGTTCTAACCTGTTGCCT (site ACGCAGTCTAG) | 0.109
72 | ACGCACTCTTGGGTTCTAACCTGTTGCCT (site ACGCATTCTAG) | 0.394
73 | ACGCATACTTGGGTTCTAACCTGTTGCCT (site ACACATACTAG) | 0.196
74 | ACGCATACTTGGGTTCTAACCTGTTGCCT (site ACGCATACTAG) | 0.0647
75 | ACGCATCCTTGGGTTCTAACCTGTTGCCT (site AAGCATCCTAG) | 0.0107
76 | ACGCATCCTTGGGTTCTAACCTGTTGCCT (site ACGCATCCTAG) | 0.0284
77 | ACGCATCCTTGGGTTCTAACCTGTTGCCT (site AGGCATCCTAG) | 0.0797
78 | ACGCATCCTTGGGTTCTAACCTGTTGCCT (site ATGCATCCTAG) | 0.11
79 | ACGCCCTCTTGGGTTCTAACCTGTTGCCT (site ACGCCCTCTAG) | 0.0283
80 | ACGCCCTCTTGGGTTCTAACCTGTTGCCT (site GCGCCCTCTAG) | 0.302
81 | ACGCCTCCTTGGGTTCTAACCTGTTGCCA (site ACCCCTCCTTG) | 0.0961
82 | ACGCCTCCTTGGGTTCTAACCTGTTGCCA (site ACGCCTCCTTG) | 0.371
